Reference: publication PMC12676205, “New Se‐Compounds With Antileishmanial, Antitumor, and Carbonic Anhydrase Inhibitory Properties” (Archiv Der Pharmazie, 2025)

Tests used:
[1] = test system: NCI‐60 human cancer cell lines; assay: NCI-60 one-dose screen, whole panel; type: cell-based; conditions: 10 µM, 48 h, whole NCI-60 panel
Protocol: (§1) To explore the potential antiproliferative properties of the newly synthesized derivatives, they were submitted to the National Cancer Institute's (NCI) Developmental Therapeutics Program (DTP) for screening at 10 μM in a panel of approximately 60 human cancer cell lines from different cancer types. The results are reported as the growth percentage (GP), which is the growth of the treated cells with each compound for 48 h compared to the untreated controls (Figure 2). […] The initial screening results are summarized in Figure 2, and the mean GP values of each subpanel are depicted in Figure 3. The full reports are compiled in the Supplementary Section.
(§2) All the reported selenoesters (1–6) were submitted to the DTP of NCI. First, they were screened at a single dose (10^−5 M) against a panel of 60 cancer cell lines derived from different tumor types following the methodology available (https://dtp.cancer.gov/discovery_development/nci-60/methodology.htm). As all the compounds satisfied the threshold inhibition criteria established, they were further assessed at five concentrations (0.01, 0.1, 1, 10, and 100 µM) against the same cell panel to obtain their corresponding dose–response curves and three antitumor parameters (GI50, TGI, and LC50) by regression. GraphPad Prism 7.0 Software was used to represent the corresponding graphs.

[2] = molecular target: T1, hCA II (Homo sapiens, UniProt P00918); assay: hCA II inhibition, stopped-flow CO2 hydration assay; type: biochemical; conditions: stopped flow technique, mean from three assays
T1 construct: made in house
Protocol: (§4) An Applied Photophysics stopped‐flow instrument was used to assay the CA‐catalyzed CO2 hydration activity [52]. […] The uncatalyzed rates were determined in the same manner and subtracted from the total observed rates. Stock solutions of the inhibitor (0.1 mM) were prepared in distilled–deionized water, and dilutions up to 0.01 nM were done thereafter with the assay buffer. Inhibitor and enzyme solutions were preincubated together for 15 min at room temperature before the assay, to allow for the formation of the E–I complex. The inhibition constants were obtained by Nonlinear least‐squares methods using PRISM 3 and the Cheng‐Prusoff equation as reported earlier and represent the mean from at least three different determinations. All CA isoforms were recombinant proteins obtained in‐house, as reported earlier [54, 55, 56].

[3] = test system: Renal subpanel; assay: NCI-60 one-dose screen, renal subpanel; type: cell-based, human; conditions: 10 µM, 48 h
Protocol: as §1, §2

[4] = test system: A498 renal‐resistant cells; assay: NCI-60 five-dose assay, A498; type: cell-based; conditions: Homo sapiens, 48 h
Protocol: (§3) All the compounds were selected for further testing since they fulfilled the set NCI one‐dose screening parameters for threshold inhibition. They were tested at five different concentrations (0.01, 0.1, 1, 10, and 100 μM) for 48 h against the same cell line panel and the dose–response curves along with three response parameters (50% growth inhibitory concentration [GI50], the 50% lethal concentration [LC50], and the total growth inhibition [TGI]) were calculated for every cancer cell line. The full reported data and corresponding graphs are compiled in Supporting Information S1. Average values of GI50, TGI, and LC50 values of all the reported selenoesters in all the subpanels are represented in Figure 4.
as §2

[5] = test system: CNS subpanel; assay: NCI-60 five-dose assay, CNS subpanel; type: cell-based; conditions: Homo sapiens, 48 h; for GI50: read-out: Mean GI50 CNS; for LC50: read-out: Mean LC50 CNS
Protocol: as §3, §2

[6] = test system: OVCAR‐5; assay: NCI-60 one-dose screen, OVCAR-5; type: cell-based, human; conditions: 10 µM, 48 h
Protocol: as §1, §2

[7] = test system: breast cancer cell line HS 578 T; assay: NCI-60 five-dose assay, HS 578 T; type: cell-based, human; conditions: Homo sapiens, Hs-578T, 48 h
Protocol: as §3, §2

[8] = test system: Ovarian subpanel; assay: NCI-60 five-dose assay, ovarian subpanel; type: cell-based; conditions: Homo sapiens, 48 h; for GI50: read-out: Mean GI50 Ovarian; for LC50 (50% lethal concentration): read-out: Mean LC50 Ovarian
Protocol: as §3, §2

[9] = molecular target: T2, hCA IX (Homo sapiens, UniProt Q16790); assay: biochemical; conditions: stopped flow technique, mean from three assays
T2 construct: made in house
Protocol: as §4

[10] = test system: Breast subpanel; assay: NCI-60 one-dose screen, breast subpanel; type: cell-based, human; conditions: 10 µM, 48 h
Protocol: as §1, §2

[11] = test system: Colon subpanel; assay: NCI-60 five-dose assay, colon subpanel; type: cell-based; conditions: Homo sapiens, 48 h; for GI50: read-out: Mean GI50 Colon; for CC50: read-out: Mean LC50 Colon
Protocol: as §3, §2

[12] = molecular target: T3, hCA XII (Homo sapiens, UniProt O43570); assay: hCA XII inhibition, stopped-flow CO2 hydration assay; type: biochemical; conditions: stopped flow technique, mean from three assays
T3 construct: made in house
Protocol: as §4

[13] = test system: Leukemia subpanel; assay: NCI-60 one-dose screen, leukemia subpanel; type: cell-based, human; conditions: 10 µM, 48 h
Protocol: as §1, §2

[14] = test system: Ovarian subpanel; assay: NCI-60 one-dose screen, ovarian subpanel; type: cell-based, human; conditions: 10 µM, 48 h
Protocol: as §1, §2

[15] = test system: CNS subpanel; assay: NCI-60 one-dose screen, CNS subpanel; type: cell-based, human; conditions: 10 µM, 48 h
Protocol: as §1, §2

[16] = test system: Prostate subpanel; assay: NCI-60 one-dose screen, prostate subpanel; type: cell-based, human; conditions: 10 µM, 48 h
Protocol: as §1, §2

[17] = test system: HCC‐2998‐resistant colon cancer cells; assay: NCI-60 one-dose screen, HCC-2998; type: cell-based, human; conditions: 10 µM, 48 h
Protocol: as §1, §2

[18] = molecular target: T4, hCA I (Homo sapiens, UniProt P00915); assay: hCA I inhibition, stopped-flow CO2 hydration assay; type: biochemical; conditions: stopped flow technique, mean from three assays
T4 construct: made in house
Protocol: as §4

[19] = test system: Leukemia subpanel; assay: NCI-60 five-dose assay, leukemia subpanel; type: cell-based; conditions: Homo sapiens, 48 h; for GI50: read-out: Mean GI50 Leukemia; for CC50: read-out: Mean LC50 Leukemia
Protocol: as §3, §2

[20] = test system: Breast subpanel; assay: NCI-60 five-dose assay, breast subpanel; type: cell-based; conditions: Homo sapiens, 48 h; for GI50: read-out: Mean GI50 Breast; for LC50: read-out: Mean LC50 Breast
Protocol: as §3, §2

[21] = THP-1 cytotoxicity (MTT, PMA-differentiated macrophages); type: cell-based, human; conditions: human, THP-1 cells differentiated into macrophages with PMA, mean ± SD
Protocol: The synthesized compounds were tested for their antileishmanial activity against promastigotes of L. major and L. infantum at four concentrations (1, 10, 50, and 100 µM) for 48 h using the 3‐(4,5‐dimethylthiazol‐2‐yl)‐2,5‐diphenyltetrazolium bromide (MTT) assay. In this evaluation, the activity was expressed in IC50 (concentration inhibiting the parasite growth by 50%). […] The CC50 was defined as the concentration of selenoesters that led to a reduction in the viability of the macrophages, such that only 50% of the cells survived when compared to the control group. This cell line, derived from the blood of a human with acute monocytic leukemia, was chosen as it has been widely reported that it resembles tissue macrophages to various extents as well as supports the infection by numerous Leishmania promastigotes. The selectivity indexes (SIs) were calculated as the ratio between toxicity on macrophages (THP‐1 cells)/antileishmanial activity. The data for standard control drugs (miltefosine and paromomycin) are included for comparison purposes.
THP‐1 cells were seeded at a concentration of 8 × 10^4 cells per well in 96‐well plates and incubated with phorbol 12‐myristate 13‐acetate (PMA) (50 ng/mL) for 72 h (37°C and 5% CO2) to differentiate them into macrophages. After that, the culture medium was removed and the cells were treated with the reported selenoesters at different increasing concentrations ranging from 1 to 200 µM for 48 h at 37°C and 5% of CO2. Macrophages treated with DMSO (1%) were used as controls, and the compounds were dissolved in DMSO at a stock concentration of 10^−2 M. Afterward, the MTT assay was performed. Data were obtained from three independent experiments performed in triplicate. The absorbance was measured at 550 nm using a MultiskanEX photometric plate reader for microplates. The CC50 values were calculated using OriginPro 8.5.1. software by nonlinear curve fitting. SIs were calculated as the ratio of the CC50 values determined for the macrophages and the IC50 values obtained in each Leishmania promastigote. GraphPad Prism 7.0 Software was used to obtain the corresponding graphs.

[22] = test system: HL‐60(TB) cells; assay: NCI-60 one-dose screen, HL-60(TB); type: cell-based, human; conditions: 10 µM, 48 h
Protocol: as §1, §2

T3 sequence (O43570 25-354): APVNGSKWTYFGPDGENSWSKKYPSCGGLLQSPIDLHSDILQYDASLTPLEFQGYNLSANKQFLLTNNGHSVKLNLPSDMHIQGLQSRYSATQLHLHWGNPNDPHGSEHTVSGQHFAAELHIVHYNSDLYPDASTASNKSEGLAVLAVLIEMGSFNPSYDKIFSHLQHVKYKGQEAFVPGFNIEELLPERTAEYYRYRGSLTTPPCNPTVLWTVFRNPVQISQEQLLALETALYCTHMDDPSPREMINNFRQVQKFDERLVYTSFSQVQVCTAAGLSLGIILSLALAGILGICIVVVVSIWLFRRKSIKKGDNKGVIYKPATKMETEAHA
T4 sequence (P00915 whole entry): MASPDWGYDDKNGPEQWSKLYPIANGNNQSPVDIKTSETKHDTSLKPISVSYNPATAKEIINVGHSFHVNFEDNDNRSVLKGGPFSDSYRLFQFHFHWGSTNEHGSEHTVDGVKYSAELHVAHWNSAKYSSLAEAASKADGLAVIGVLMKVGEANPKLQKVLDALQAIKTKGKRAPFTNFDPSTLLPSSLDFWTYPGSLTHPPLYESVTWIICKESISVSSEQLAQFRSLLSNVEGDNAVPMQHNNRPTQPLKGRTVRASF

Row | Structure (SMILES) | mean GP (growth percentage) [1] [%] | Ki [2] [µM] | average growth cell value, Renal [3] [%] | GI50 [5] [µM] | behaviour in OVCAR‐5 [6] | GI50 [8] [µM] | Ki [9] [µM] | average growth cell value, Breast [10] [%] | GI50 [11] [µM] | CC50 [11] [µM] | Ki [12] [µM] | average growth cell value, Leukemia [13] [%] | average growth cell value, Ovarian [14] [%] | average growth cell value, CNS [15] [%] | average growth cell value, Prostate [16] [%] | Ki [18] [µM] | GI50 [19] [µM] | CC50 [19] [µM] | GI50 [20] [µM] | CC50 at 48 h [21] [µM] | other results
1 | N#Cc1ccc(NC(=O)C[Se]C(=O)c2ccccc2)cc1C(F)(F)F [Compound 1, Se‐(2‐((4‐cyano‐3‐(trifluoromethyl)phenyl)amino)‐2‐oxoethyl)benzoselenoate] | −94.16 | 80.4 | -95.41 | 1.37 | cytotoxic activity | 1.77 | 57.2 | -86.92 | 1.98 | 6.79 | 51.1 | -96.53 | -92.77 | -94.57 | -95.47 | > 100 | 1.01 | 4.36 | 1.61 | – | GI50 [4]: 0.89 µM; LC50 [5]: 5.64 µM; GI50 [7]: 0.64 µM; LC50 (50% lethal concentration) [8]: 6.4 µM; behaviour in HCC‐2998 [17]: susceptible; LC50 [20]: 8.02 µM
2 | O=C(C[Se]C(=O)c1ccccc1)Nc1cccc(OC(F)(F)F)c1 [Compound 3, Se‐(2‐oxo‐2‐((3‐(trifluoromethoxy)phenyl)amino)ethyl)benzoselenoate] | −43.99 | 82.4 | -61.17 | 2.07 | cytostatic behavior | 2.45 | 80.2 | -45.08 | 8.52 | 43.9 | 17.4 | -36.81 | -50.78 | -78.56 | -48.28 | > 100 | 3.06 | 19.6 | 2.62 | ≥ 200 | LC50 [5]: 9 µM; LC50 (50% lethal concentration) [8]: 18.2 µM; LC50 [20]: 22.6 µM
3 | O=C(C[Se]C(=O)c1ccco1)Nc1ccc([N+](=O)[O-])c(C(F)(F)F)c1 [Compound 5, Se‐(2‐((4‐nitro‐3‐(trifluoromethyl)phenyl)amino)‐2‐oxoethyl)furan‐2‐carboselenoate] | – | 83.3 | -39.51 | 2.04 | cytotoxic activity | 2.28 | 21.1 | -28.95 | 2.58 | 46.5 | 72.6 | 6.59 | -38.57 | -59.61 | -27.89 | > 100 | 2.51 | > 100 | 2.01 | 108 ± 5.53 | behaviour in HCC‐2998 [17]: susceptible
4 | O=C(C[Se]C(=O)c1ccco1)Nc1cccc(OC(F)(F)F)c1 [Compound 6, Se‐(2‐oxo‐2‐((3‐(trifluoromethoxy)phenyl)amino)ethyl)furan‐2‐carboselenoate] | – | 8.2 | -17.86 | 3.08 | cytostatic behavior | 8.37 | 35.9 | -10.87 | 7.93 | 67.3 | 9.6 | 39.71 | 5.95 | -34.28 | -15.23 | > 100 | 6.45 | > 100 | 3.08 | 38.7 ± 6.71 | behaviour in HL‐60(TB) [22]: cytotoxic behavior
